Data reported in ChEMBL document CHEMBL1201862, “PubChem BioAssay data set” (2004).
The source made the active and inactive calls. Rule as the data show it: actives have a measured IC50 and inactives only a lower limit.

Target: Envelope glycoprotein gp160 (Human immunodeficiency virus 1, UniProt Q6QLK5)
Assay: inhibitors of HIV fusion peptide binding, primary screen, biochemical, uHTS, fluorescence dequenching (AID 1986)

Envelope glycoprotein gp160, sequence (Q6QLK5 whole entry, the tested form may be a part): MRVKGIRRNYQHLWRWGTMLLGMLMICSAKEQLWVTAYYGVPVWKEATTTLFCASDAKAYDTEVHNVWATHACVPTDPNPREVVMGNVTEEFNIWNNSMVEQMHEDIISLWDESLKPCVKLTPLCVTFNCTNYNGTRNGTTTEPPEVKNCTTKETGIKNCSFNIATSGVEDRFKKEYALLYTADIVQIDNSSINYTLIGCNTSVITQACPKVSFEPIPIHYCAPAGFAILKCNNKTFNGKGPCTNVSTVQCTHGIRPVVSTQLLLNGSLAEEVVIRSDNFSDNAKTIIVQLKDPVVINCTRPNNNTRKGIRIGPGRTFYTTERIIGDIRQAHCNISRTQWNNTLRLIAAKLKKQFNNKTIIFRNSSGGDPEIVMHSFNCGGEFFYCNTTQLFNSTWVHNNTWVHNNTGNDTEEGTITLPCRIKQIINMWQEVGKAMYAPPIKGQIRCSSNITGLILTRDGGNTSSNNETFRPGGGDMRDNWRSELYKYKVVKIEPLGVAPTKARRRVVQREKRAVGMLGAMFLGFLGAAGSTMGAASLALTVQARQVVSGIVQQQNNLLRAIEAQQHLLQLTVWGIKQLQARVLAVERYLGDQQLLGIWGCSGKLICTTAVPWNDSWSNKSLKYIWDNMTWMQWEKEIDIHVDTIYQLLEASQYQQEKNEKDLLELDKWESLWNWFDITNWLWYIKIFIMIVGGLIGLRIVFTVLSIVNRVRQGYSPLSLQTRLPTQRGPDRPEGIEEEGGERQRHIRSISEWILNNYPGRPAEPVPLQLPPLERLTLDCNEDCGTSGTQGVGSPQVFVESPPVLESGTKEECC

**Q.** O=C(NCc1ccccc1)c1ccc2c(=O)[nH]c3c(C(=O)NCC4CCCO4)sc(=S)n3c2c1 (stereo not drawn) was tested. Which IC50 did it give?
**A.** 24.5 µM (active)

**Q.** For O=C(O)C1Nc2c(O)cccc2C2C=CCC12 (stereo not drawn), which IC50 is on record?
**A.** 9.86 µM (active)

**Q.** For O=C(CN1C(=O)S/C(=C\C=C\c2ccccc2)C1=O)Nc1ccccc1C(=O)O, which IC50 is on record?
**A.** 21.1 µM (active)
